Consider 18 molecules from US11130778B2, “CD73 inhibitors” (ORIC Pharmaceuticals, Inc., priority 2019, dated 2021).

The test has as its target T1, CD73 (Homo sapiens, UniProt P21589).
T1 sequence (P21589 27-549): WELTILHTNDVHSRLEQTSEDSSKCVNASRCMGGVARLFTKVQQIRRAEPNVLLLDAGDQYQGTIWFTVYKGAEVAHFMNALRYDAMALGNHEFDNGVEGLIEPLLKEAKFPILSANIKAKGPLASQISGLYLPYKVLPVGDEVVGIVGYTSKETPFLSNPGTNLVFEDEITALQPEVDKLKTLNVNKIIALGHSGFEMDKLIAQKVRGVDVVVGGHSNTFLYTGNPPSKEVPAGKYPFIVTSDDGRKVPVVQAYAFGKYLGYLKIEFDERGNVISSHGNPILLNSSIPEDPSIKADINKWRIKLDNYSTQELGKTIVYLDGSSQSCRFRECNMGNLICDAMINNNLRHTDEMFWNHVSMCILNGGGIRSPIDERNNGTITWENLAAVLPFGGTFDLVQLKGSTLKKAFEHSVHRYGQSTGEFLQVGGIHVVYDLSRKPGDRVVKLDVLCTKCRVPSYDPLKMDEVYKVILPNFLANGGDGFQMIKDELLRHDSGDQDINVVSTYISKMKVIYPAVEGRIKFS
Kind of test: Biochemical assay of CD73 inhibition (Malachite Green). Conditions: CD73 0.3208 nM, AMP 15 μM, Tris-HCl pH 7.4, Malachite Green absorbance readout; read-out: CD73_Biochem. The protocol: Example A1: Biochemical Assay
Assay Reaction Conditions
• Assay Volume: 70 μl • Reaction Volume: 50 μl • CD73: 0.3208 nM • AMP:15 μM • Assay Buffer: 2 5 mM Tris-HCL, pH 7.4, 0.01% Brij-35, 0.01% BSA, 5 mM MgCl2 Assay Procedure:
Made dose titration of testing compounds in assay buffer, 10 points 1/2 log titrations in duplicates starting at 100 μM.
Added 25 µl of CD73 to each well for a final concentration of […].
Incubated at RT for 15 min.
Added 25 µl of AMP to each well for a final concentration of 15 μM.
Incubated at RT for 10 min.
Added […] of Malachite Green Reagent A, incubate at RT for 10 min.
Added […] of Malachite Green Reagent B, incubate at RT for 45 min.
Read the Absorbance on Envision plate reader using excitation filter: Cy5 […].
The ability of the compounds disclosed herein to inhibit CD73 activity was quantified and the respective IC50 values were determined. Table 2 provides the biochemical IC50 values of compounds disclosed herein.
Take `COCC(COCc1nn[nH]n1)(OC[C@H]1O[C@@H](n2ncc3c(NC4CCCC4)nc(C#CC4CC4)nc32)[C@H](O)[C@@H]1O)P(=O)(O)O` (stereo partly drawn) [Example 53, (1-((2H-tetrazol-5-yl)methoxy)-2-(((2R,3S,4R,5R)-5-(4-(cyclopentylamino)-6-(cyclopropylethynyl)-1H-pyrazolo[3,4-d]pyrimidin-1-yl)-3,4-dihydroxytetrahydrofuran-2-yl)methoxy)-3-methoxypropan-2-yl)phosphonic acid]: the IC50 is at most 10 nM.

On to `COC[C@@](COCc1nn[nH]n1)(OC[C@H]1O[C@@H](n2ncc3c(NC4CCCC4)nc(Cl)nc32)[C@H](O)[C@@H]1O)P(=O)(O)O` [Example 39, ((R)-1-((2H-tetrazol-5-yl)methoxy)-2-(((2R,3S,4R,5R)-5-(6-chloro-4-(cyclopentylamino)-1H-pyrazolo[3,4-d]pyrimidin-1-yl)-3,4-dihydroxytetrahydrofuran-2-yl)methoxy)-3-methoxypropan-2-yl)phosphonic acid], for which the IC50 is at most 10 nM. For `O=P(O)(O)[C@](CO)(COCc1nn[nH]n1)OC[C@H]1O[C@@H](n2ncc3c(NC4CCC4)nc(Cl)nc32)[C@H](O)[C@@H]1O` [Example 52, ((R)-1-((1H-tetrazol-5-yl)methoxy)-2-(((2R,3S,4R,5R)-5-(6-chloro-4-(cyclobutylamino)-1H-pyrazolo[3,4-d]pyrimidin-1-yl)-3,4-dihydroxytetrahydrofuran-2-yl)methoxy)-3-hydroxypropan-2-yl)phosphonic acid] the value was at most 10 nM; for `O=P(O)(O)[C@@](CO)(COCc1nn[nH]n1)OC[C@H]1O[C@@H](n2ncc3c(NCC4CCC4)nc(Cl)nc32)[C@H](O)[C@@H]1O` [Example 58, ((S)-1-((2H-tetrazol-5-yl)methoxy)-2-(((2R,3S,4R,5R)-5-(6-chloro-4-((cyclobutylmethyl)amino)-1H-pyrazolo[3,4-d]pyrimidin-1-yl)-3,4-dihydroxytetrahydrofuran-2-yl)methoxy)-3-hydroxypropan-2-yl)phosphonic acid], at most 10 nM.

For `O=P(O)(O)C(COCc1nnn[nH]1)(Cc1nnn[nH]1)OC[C@H]1O[C@@H](n2ncc3c(NC4CCCC4)nc(Cl)nc32)[C@H](O)[C@@H]1O` (stereo in doubt) [Example 42, ((R)-1-((1H-tetrazol-5-yl)methoxy)-2-(((2R,3S,4R,5R)-5-(6-chloro-4-(cyclopentylamino)-1H-pyrazolo[3,4-d]pyrimidin-1-yl)-3,4-dihydroxytetrahydrofuran-2-yl)methoxy)-3-(1H-tetrazol-5-yl)propan-2-yl)phosphonic acid], the IC50 is at most 10 nM. For `O=P(O)(O)[C@](CO)(COCc1nn[nH]n1)OC[C@H]1O[C@@H](n2ncc3c(NC4CCCC4)nc(Cl)nc32)[C@H](O)[C@@H]1O` [Example 24, ((R)-1-((2H-tetrazol-5-yl)methoxy)-2-(((2R,3S,4R,5R)-5-(6-chloro-4-(cyclopentylamino)-1H-pyrazolo[3,4-d]pyrimidin-1-yl)-3,4-dihydroxytetrahydrofuran-2-yl)methoxy)-3-hydroxypropan-2-yl)phosphonic acid] the value was at most 10 nM; for `O=P(O)(O)C(CO)(COCc1nn[nH]n1)OC[C@H]1O[C@@H](n2ncc3c(N[C@@H]4CCc5ccccc54)nc(Cl)nc32)[C@H](O)[C@@H]1O` (stereo partly drawn) [Example 60, (1-((2H-tetrazol-5-yl)methoxy)-2-(((2R,3S,4R,5R)-5-(6-chloro-4-(((R)-2,3-dihydro-1H-inden-1-yl)amino)-1H-pyrazolo[3,4-d]pyrimidin-1-yl)-3,4-dihydroxytetrahydrofuran-2-yl)methoxy)-3-hydroxypropan-2-yl)phosphonic acid], at most 10 nM; for `O=P(O)(O)[C@](CO)(Cc1nn[nH]n1)OC[C@H]1O[C@@H](n2ncc3c(NCc4ccccc4Cl)nc(Cl)nc32)[C@H](O)[C@@H]1O` (single isomer, unassigned) [Example 4], 10 to 100 nM. Under `O=c1[nH]c(C[C@](CO)(OC[C@H]2O[C@@H](n3ncc4c(NC5CCCC5)nc(Cl)nc43)[C@H](O)[C@@H]2O)P(=O)(O)O)no1` [Example 27, ((S)-2-(((2R,3S,4R,5R)-5-(6-chloro-4-(cyclopentylamino)-1H-pyrazolo[3,4-d]pyrimidin-1-yl)-3,4-dihydroxytetrahydrofuran-2-yl)methoxy)-1-hydroxy-3-(5-oxo-4,5-dihydro-1,2,4-oxadiazol-3-yl)propan-2-yl)phosphonic acid] stands at most 10 nM; under `O=P(O)(O)[C@](CO)(Cc1nn[nH]n1)OC[C@H]1O[C@@H](n2ncc3c(NCC4CCC4)nc(Cl)nc32)[C@H](O)[C@@H]1O` [Example 19, ((S)-2-(((2R,3S,4R,5R)-5-(6-chloro-4-((cyclobutylmethyl)amino)-1H-pyrazolo[3,4-d]pyrimidin-1-yl)-3,4-dihydroxytetrahydrofuran-2-yl)methoxy)-1-hydroxy-3-(2H-tetrazol-5-yl)propan-2-yl)phosphonic acid], at most 10 nM. Under `COC[C@](Cc1nn[nH]n1)(OC[C@H]1O[C@@H](n2ncc3c(NCC(C)C)nc(Cl)nc32)[C@H](O)[C@@H]1O)P(=O)(O)O` [Example 35, ((R)-2-(((2R,3S,4R,5R)-5-(6-chloro-4-(isobutylamino)-1H-pyrazolo[3,4-d]pyrimidin-1-yl)-3,4-dihydroxytetrahydrofuran-2-yl)methoxy)-1-methoxy-3-(2H-tetrazol-5-yl)propan-2-yl)phosphonic acid] stands at most 10 nM; under `COCCOCC(COCc1nnn[nH]1)(OC[C@H]1O[C@@H](n2ncc3c(NC4CCCC4)nc(Cl)nc32)[C@H](O)[C@@H]1O)P(=O)(O)O` (single isomer, unassigned) [Example 1], at most 10 nM.

Take `O=c1[nH]c(C[C@@](CO)(OC[C@H]2O[C@@H](n3ncc4c(NC5CCCC5)nc(Cl)nc43)[C@H](O)[C@@H]2O)P(=O)(O)O)no1` [Example 26, ((R)-2-(((2R,3S,4R,5R)-5-(6-chloro-4-(cyclopentylamino)-1H-pyrazolo[3,4-d]pyrimidin-1-yl)-3,4-dihydroxytetrahydrofuran-2-yl)methoxy)-1-hydroxy-3-(5-oxo-4,5-dihydro-1,2,4-oxadiazol-3-yl)propan-2-yl)phosphonic acid]: the IC50 was at most 10 nM.

On to `COC[C@](Cc1nn[nH]n1)(OC[C@H]1O[C@@H](n2ncc3c(NC(C)C)nc(Cl)nc32)[C@H](O)[C@@H]1O)P(=O)(O)O` [Example 31, ((R)-2-(((2R,3S,4R,5R)-5-(6-chloro-4-(isopropylamino)-1H-pyrazolo[3,4-d]pyrimidin-1-yl)-3,4-dihydroxytetrahydrofuran-2-yl)methoxy)-1-methoxy-3-(2H-tetrazol-5-yl)propan-2-yl)phosphonic acid], for which the IC50 was at most 10 nM. Turning to `O=P(O)(O)[C@@](CO)(Cc1nn[nH]n1)OC[C@H]1O[C@@H](n2ncc3c(NCC4CCC4)nc(Cl)nc32)[C@H](O)[C@@H]1O` [Example 20, ((R)-2-(((2R,3S,4R,5R)-5-(6-chloro-4-((cyclobutylmethyl)amino)-1H-pyrazolo[3,4-d]pyrimidin-1-yl)-3,4-dihydroxytetrahydrofuran-2-yl)methoxy)-1-hydroxy-3-(2H-tetrazol-5-yl)propan-2-yl)phosphonic acid], the IC50 was in the range of 10 to 100 nM. For `O=P(O)(O)[C@@](CO)(COCc1nn[nH]n1)OC[C@H]1O[C@@H](n2ncc3c(NC4CCC4)nc(Cl)nc32)[C@H](O)[C@@H]1O` [Example 55, ((S)-1-((2H-tetrazol-5-yl)methoxy)-2-(((2R,3S,4R,5R)-5-(6-chloro-4-(cyclobutylamino)-1H-pyrazolo[3,4-d]pyrimidin-1-yl)-3,4-dihydroxytetrahydrofuran-2-yl)methoxy)-3-hydroxypropan-2-yl)phosphonic acid] the value was at most 10 nM; for `COCC(COCc1nn[nH]n1)(OC[C@H]1O[C@@H](n2ncc3c(N[C@@H]4CCc5ccccc54)nc(Cl)nc32)[C@H](O)[C@@H]1O)P(=O)(O)O` (stereo partly drawn) [Example 56, (1-((2H-tetrazol-5-yl)methoxy)-2-(((2R,3S,4R,5R)-5-(6-chloro-4-(((R)-2,3-dihydro-1H-inden-1-yl)amino)-1H-pyrazolo[3,4-d]pyrimidin-1-yl)-3,4-dihydroxytetrahydrofuran-2-yl)methoxy)-3-methoxypropan-2-yl)phosphonic acid], at most 10 nM. For `O=P(O)(O)C(CO)(CCCc1nn[nH]n1)OC[C@H]1O[C@@H](n2ncc3c(NC4CCCC4)nc(Cl)nc32)[C@H](O)[C@@H]1O` (stereo partly drawn) [Example 5, (2-(((2R,3S,4R,5R)-5-(6-chloro-4-(cyclopentylamino)-1H-pyrazolo[3,4-d]pyrimidin-1-yl)-3,4-dihydroxytetrahydrofuran-2-yl)methoxy)-1-hydroxy-5-(2H-tetrazol-5-yl)pentan-2-yl)phosphonic acid] the value was at most 10 nM.
